Data set [1] relates to K562 cancer cell. Description: Growth inhibition of K562 cancer cell (MTT). The format is cell-based. The settings on record: for IC50: Homo sapiens, K562, 48 h, K562, MTT, 2 days; for improved activity compared with Imatinib mesylate: K562. The method, then:
(§1) In the present experiment, the inhibitory activity of the compound of formula (1) was determined against the growth of K562 cancer cell. First, the cells were allowed to stand in RPMI (Roswell Park Memorial Institute)-1640 medium containing 10% (v/v) fetal bovine serum in an incubator of 37° C. and 5% by volume of CO2. The cancer cells (1000 cells) were transferred to a 96-well plate, and the test compound was diluted. The plate was allowed to stand under the above mentioned conditions for 2 days. After this treatment, to the cells was added 0.2% MTT (3-[4,5-dimethylthiazol-2-yl]-2,5-diphenyltetrazolium bromide) solution, and the resulting mixture was allowed to stand under the constant temperature-condition for 4 hours. The supernatant was removed to leave the resulting crystal. DMSO was added to dissolve the crystal, and the absorbance of the solution was measured at 540 nm. IC50 value was calculated using a computer system according to the following formula: (OD540(test)−OD540(blank)/OD540(control)−OD540(blank))×100

Data set [2] concerns CT-26 cancer cell. Description: Growth inhibition of CT-26 cancer cell (MTT). Type of data set: cell-based. The settings on record: for improved activity compared with Imatinib mesylate: CT-26; for IC50: Mus musculus, CT26, 48 h, CT-26, MTT, 2 days, read-out: IC50. The method, then: as §1
In the present experiment, the inhibitory activity of the compounds of formula (1) was determined against the growth of CT-26 cancer cell. The test was performed according to the same procedure as Experiment 1.

For data set [3], the system named is A549. Description: Growth inhibition of lung cancer cell A549 (MTT). Type of data set: cell-based. The settings on record: for IC50: Homo sapiens, A549, Experiment 3, read-out: IC50. The method, then: as §1
(§2) The test was performed according to the same procedure as Experiment 1.
as §2

Data set [4] deals with Panc-1. Description: Growth inhibition of pancreatic cancer cell Panc-1 (MTT). Type of data set: cell-based. The conditions noted are these: Homo sapiens; Panc-1, Experiment 3. The method, then:
as §1, §2

Data set [5] has as its system A-172. Description: Growth inhibition of encephalophyma cell A-172 (MTT). Type of data set: cell-based. The settings on record: Homo sapiens; A-172, Experiment 3. The method, then:
as §1, §2

Data set [6] deals with RPMI-6666. Description: Growth inhibition of lymphoma cell RPMI-6666 (MTT). The format is cell-based. The settings on record: Homo sapiens; RPMI-6666, Experiment 3. The method, then:
as §1, §2

For data set [7], the system named is SNU-C1. Description: Growth inhibition of colon cancer cell SNU-C1 (MTT). Type of data set: cell-based. The settings on record: Homo sapiens; SNU-C1, Experiment 3. The method, then:
as §1, §2

The subject of data set [8] is SNU-1. Description: Growth inhibition of gastric cancer cell SNU-1 (MTT). The settings on record: for IC50: Homo sapiens, read-out: IC50. The format is cell-based. The method, then: as §1, §2, §2
Data set [9] relates to Sarcoma-180. Description: Growth inhibition of Sarcoma-180 (MTT). The format is cell-based. The method, then: as §1, §2
The test system of data set [10] is KB. Description: Growth inhibition of oral epithelial cancer cell KB (MTT). The format is cell-based. The method, then: as §1, §2
Data set [11] has as its system SK-OV-03. Description: Growth inhibition of ovarian cancer cell SK-OV-03 (MTT). The format is cell-based. The method, then:
as §1, §2

The nature of data set [12]: Acute toxicity test in mice (oral administration). The format is in vivo. The settings on record: both sexes, ICR, mouse, in vivo, po. The method, then:
(§3) In order to determine the acute toxicity of the compound of the present invention when the compound is orally administered, mice (ICR, 24˜26 g) were fasted for 16 hours. One group consists of 10 males and 10 females. The first group is the control group and 0.5% sodium carboxymethyl cellulose (CMC) was administered per oral to this group. The compounds of Examples 5 and 8 were orally administered in a dosage of 2,000 mg/kg, the maximum dosage in acute toxicity test, to each test group. […] On the last day of the test, 14th day from the start, the mice were subjected to an autopsy in order to examine changes of the internal organs. […] Further, since no mouse died during the test period, it was confirmed that the compounds of Examples 5 and 8 have LD50 of 2,000 mg/kg or more. This means that the compounds of the present invention including those of Examples 5 and 8 are safe in the aspect of acute toxicity.

Data set [13] has as its system mice (ICR). Description: Acute toxicity test in mice (oral administration). The format is in vivo. The settings on record: mice (ICR), oral 2,000 mg/kg, 14 days. The method, then: as §3
The nature of data set [14]: Acute toxicity test in rat (oral administration). Type of data set: in vivo. The settings on record: both sexes, SD, rat, in vivo, po. The method, then: (§4) In this test, the acute toxicity of the compound of the present invention when the compound is […] was determined on rat (SD-Rat, 100˜110 g). One group consists of 5 males and 5 females. The first group is the control group and 0.5% CMC was intravenously administered to this group. The compounds of Examples 5 and 8 were orally administered in a dosage of 1,000, 2,000 mg/kg, respectively, to each test group. […] On the last day of the test, 14th day from the start, the rat were subjected to an autopsy in order to examine changes of the internal organs. […] Further, since no […] died during the test period, it was confirmed that the compounds of Examples 5 and 8 have LD50 of 2,000 mg/kg or more. This means that the compounds of the present invention including those of Examples 5 and 8 are safe in the aspect of acute toxicity.

Data set [15] deals with rat (SD-Rat). Description: Acute toxicity test in rat (oral administration). Type of data set: in vivo. The conditions noted are these: SD-Rat, orally 1,000, 2,000 mg/kg, 14 days. The method, then: as §4
Data set [16] in a line: in vivo. The settings on record: male, Sprague-Dawley, rat, po, 100 mg/kg.
Data set [17] relates to HT-1197. Description: Growth inhibition of bladder cancer cell HT-1197 (MTT). The conditions noted are these: Homo sapiens, HT1197; HT-1197, Experiment 3. The format is cell-based. The method, then: as §1, §2
The nature of data set [18]: Comparative pharmacokinetic test in white rats.
The mark [19] stands for this setting: male, Sprague-Dawley, rat, plasma, po, 100 mg/kg.

≈ marks a conversion by molar mass, not a printed value. Where two headings read alike, the source gives them in different places. Where only a bound is given, the exact number is not on record here.

As for `Cc1cn(-c2cc(NC(=O)c3ccc(C)c(Nc4nccc(-c5cnccn5)n4)c3)cc(C(F)(F)F)c2)cn1` [Example 8, 4-methyl-N-[3-(4-methylimidazol-1-yl)-5-trifluoromethyl-phenyl]-3-(4-pyrazin-2-yl-pyrimidin-2-ylamino)-benzamide], the IC50 in [1] was not above 0.01 µg/mL; in [2] it was less than 0.01 µg/mL; in data set [3], 2.23 µg/mL (≈ 4.2 µM); in data set [4], 0.498 µg/mL (≈ 0.939 µM); in data set [5] it was less than 0.01 µg/mL; in [6], less than 0.01 µg/mL. The IC50 in data set [7] was less than 0.01 µg/mL; in data set [8] (SNU1, SNU-1, Experiment 3) it was less than 0.01 µg/mL; in [8] (SNU1, SNU-1, Experiment 4), 0.27 µg/mL (≈ 0.509 µM); in data set [9] (Mus musculus, Sarcoma-180, Experiment 4, read-out: IC50) it was less than 0.0001 µg/mL; in data set [10] (Homo sapiens, Experiment 4, read-out: IC50), 0.00058 µg/mL (≈ 0.00109 µM); in data set [11] (SK-OV-03, Experiment 4, read-out: IC50), 2.39 µg/mL (≈ 4.51 µM). The “improved activity compared with Imatinib mesylate” value in data set [1] is 50 times; in data set [2] it was 300 times. The “improved activity than Imatinib mesylate” value is more than 3.5 times in data set [3] (A549, Experiment 4); “more than 170 times” in data set [8] (SNU-1, Experiment 4); “more than 1×10^4 time” in [9] (Sarcoma-180); “more than 1×10^4 time” in data set [10]; more than 12 times in [11] (SK-OV-03). Besides, the “improved activity in comparison with cisplatin” value in data set [8] (SNU-1, Experiment 4) was “more than 8 times”. The LD50 at 14 days in [12] and in [14] was not below 2000 mg/kg in each case. For the same molecule, the “clinical conditions and autopsy” value in [13] and in data set [15] was “neither abnormal response nor specific autopsy result was observed” throughout. The molecule also showed an exposure (AUC) in data set [16] of 61300 ng·h/mL. The peak level in [16] (Cmax) was 4100 ng/mL. In addition, the Tmax in data set [16] was 12 h.

`Cc1cn(-c2cc(NC(=O)c3ccc(C)c(Nc4nccc(-c5nccs5)n4)c3)cc(C(F)(F)F)c2)cn1` [Example 5, 4-methyl-N-[3-(4-methylimidazol-1-yl)-5-trifluoromethyl-phenyl]-3-(4-thiazol-2-yl-pyrimidin-2-ylamino)-benzamide]: the IC50 in data set [1] was not above 0.01 µg/mL; in [2], 0.06 µg/mL (≈ 0.112 µM); in data set [3], 0.082 µg/mL (≈ 0.153 µM); in data set [4], 7.1 µg/mL (≈ 13.3 µM); in [5], less than 0.01 µg/mL; in [6] it was less than 0.01 µg/mL. The half-maximal inhibitory concentration (IC50) in [17] is 0.063 µg/mL (≈ 0.118 µM); in data set [7], less than 0.01 µg/mL; in [8] (SNU1, SNU-1, Experiment 3), less than 0.01 µg/mL. The “improved activity compared with Imatinib mesylate” value is 50 times in data set [1] and 300 times in data set [2]. Further, the LD50 at 14 days in data set [12] and in [14] was not below 2000 mg/kg each time. Moreover, the “clinical conditions and autopsy” value in [13] and in data set [15] was “neither abnormal response nor specific autopsy result was observed” each time. Also, the AUC in data set [18] (setting [19]) was found to be 114000 ng·h/mL. For the same molecule, the maximum concentration (Cmax) in data set [18] (setting [19]) amounted to 8270 ng/mL. Further, the Tmax in data set [18] (setting [19]) turned out to be 11.2 h. For the same molecule, the “AUC as much as that of Imatinib mesylate” value in data set [18] (white rats, 100 mg/kg per oral) was approximately 5 times. The “Cmax as much as that of Imatinib mesylate” value in data set [18] (white rats, 100 mg/kg per oral) is “about 4 times”.

The IC50 is the concentration that inhibits the measured activity by half. Broadly, the LD50 is the dose at which mortality reaches 50%. A low value points to a more toxic substance. The AUC is the area under the concentration-time curve, a measure of exposure. As a reminder, the Cmax is the peak of the concentration-time curve. As usually defined, the Tmax is the time from dosing to the highest level.

(Values after US7501424B2, “N-phenyl-2-pyrimidine-amine derivatives and process for the preparation thereof” (Il-Yang Pharm. Co., Ltd., priority 2005, dated 2009).)
